In US20070128217A1 (priority 2003, published 2007):

Tests used:
[1] = test system: rabbit serum obtained by immunizing a rabbit with the SARS-CoV strain Frankfurt 1; type: binding; parameters: Binding of a rabbit serum to linear peptides / Binding of a rabbit serum to looped peptides / Rabbit serum linear peptides / Rabbit serum looped peptides / Binding of a rabbit serum to linear peptides of protein N of SARS-CoV Urbani (Rabbit serum linear peptides) / Binding of a rabbit serum to looped/cyclic peptides of protein N of SARS-CoV Urbani (Rabbit serum looped peptides): unit not given here
[2] = test system: antibodies in sera from SARS patients (sera 1a, 1b, 2, 6, 37, 62, London, SARS-yellow, SARS-green); type: binding, human; parameters: Binding of serum 6 to linear peptides of protein X1 of SARS-CoV Urbani / Binding of serum 37 to linear peptides of protein X1 of SARS-CoV Urbani / Binding of serum 6 to looped/cyclic peptide (PEPSCAN-ELISA) / Binding of serum 37 to looped/cyclic peptide (PEPSCAN-ELISA) / Binding of serum 37 to looped/cyclic peptides of protein X1 of SARS-CoV Urbani / Binding of serum 6 to linear peptides of protein X2 / Binding of serum 37 to linear peptides of protein X2 / Binding of serum 37 to looped/cyclic peptides of protein X2 of SARS-CoV Urbani / Binding of serum 6 to linear peptides of protein M of SARS-CoV Urbani / Binding of serum 37 to linear peptides of protein M of SARS-CoV Urbani / Binding of serum 6 to looped/cyclic peptides of protein M of SARS-CoV Urbani / Binding of serum 37 to looped/cyclic peptides of protein M of SARS-CoV Urbani / Binding of serum 6 to linear peptides of protein X3 of SARS-CoV Urbani / Binding of serum 37 to linear peptides of protein X3 of SARS-CoV Urbani / Binding of serum 37 to looped/cyclic peptides of protein X3 of SARS-CoV Urbani / Binding of serum 6 to linear peptides of protein X4 of SARS-CoV Urbani / Binding of serum 37 to linear peptides of protein X4 of SARS-CoV Urbani / Binding of serum 37 to looped/cyclic peptides of protein X4 of SARS-CoV Urbani / Binding of serum 6 to linear peptides of protein X5 of SARS-CoV Urbani / Binding of serum 37 to linear peptides of protein X5 of SARS-CoV Urbani / Binding of serum 37 to looped/cyclic peptides of protein X5 of SARS-CoV Urbani / Binding of serum 6 to linear peptides of protein N of SARS-CoV Urbani / Binding of serum 37 to linear peptides of protein N of SARS-CoV Urbani / Binding of serum 6 to linear peptide (PEPSCAN-ELISA) / Binding of serum 1a to looped/cyclic peptides of protein N of SARS-CoV Urbani / Binding of serum 1b to looped/cyclic peptides of protein N of SARS-CoV Urbani / Binding of serum 2 to looped/cyclic peptides of protein N of SARS-CoV Urbani / Binding of serum 6 to looped/cyclic peptides of protein N of SARS-CoV Urbani / Binding of serum 37 to looped/cyclic peptides of protein N of SARS-CoV Urbani / Binding of serum 62 to looped/cyclic peptides of protein N of SARS-CoV Urbani / Binding of serum London to looped/cyclic peptides of protein N of SARS-CoV Urbani / Binding of serum SARS-green to looped/cyclic peptides of protein N of SARS-CoV Urbani: unit not given here
[3] = test system: control sera (pooled serum of ten healthy LUMC hospital workers; commercial negative donor pooled serum from the Dutch bloodbank); type: binding, human; parameters: Binding of Control serum LUMC to linear peptides / Binding of Control serum Blood-bank to linear peptides / Binding of Control serum LUMC to looped peptides / Binding of Control Serum Blood-Bank to Looped peptides / Binding of Control serum LUMC to linear peptides of the protein M of SARS-CoV Urbani / Binding of Control serum Blood-bank to linear peptides of the protein M of SARS-CoV Urbani / Binding of Control serum LUMC to looped peptides of the protein M of SARS-CoV Urbani / Binding of Control Serum Blood-Bank to Looped peptides of the protein M of SARS-CoV Urbani: unit not given here

HTYQLRARSVSPKLF
recognized: Recognition of the peptide by the rabbit serum [1]
0.4: Binding of serum SARS-green to looped/cyclic peptides of protein X4 of SARS-CoV Urbani [2]
1.0: Binding of serum 6 to linear peptides of protein X4 of SARS-CoV Urbani [2] | Binding of serum 37 to linear peptides of protein X4 of SARS-CoV Urbani [2] | Binding of Control serum Blood-bank to linear peptides [3]
0.8: Binding of serum 1a to looped/cyclic peptides of protein X4 of SARS-CoV Urbani [2] | Binding of serum 1b to linear peptides of protein X4 of SARS-CoV Urbani [2] | Binding of serum 2 to looped/cyclic peptides of protein X4 of SARS-CoV Urbani [2] | Binding of serum 6 to looped/cyclic peptides of protein X4 of SARS-CoV Urbani [2] | Binding of serum London to linear peptides of protein X4 of SARS-CoV Urbani [2] | Binding of serum SARS-yellow to looped/cyclic peptides of protein X4 of SARS-CoV Urbani [2] | Binding of Control Serum Blood-Bank to Looped peptides [3]
0.7: Binding of serum 1a to linear peptides of protein X4 of SARS-CoV Urbani [2] | Binding of serum SARS-green to linear peptides of protein X4 of SARS-CoV Urbani [2] | Binding of Control serum LUMC to looped peptides [3]
0.9: Binding of serum 62 to linear peptides of protein X4 of SARS-CoV Urbani [2] | Binding of Control serum LUMC to linear peptides [3]
0.6: Binding of serum 2 to linear peptides of protein X4 of SARS-CoV Urbani [2] | Binding of serum 37 to looped/cyclic peptides of protein X4 of SARS-CoV Urbani [2] | Binding of serum 62 to looped/cyclic peptides of protein X4 of SARS-CoV Urbani [2]
0.5: Binding of serum 1b to looped/cyclic peptides of protein X4 of SARS-CoV Urbani [2] | Binding of serum SARS-yellow to linear peptides of protein X4 of SARS-CoV Urbani [2]
0.3: Binding of serum London to looped/cyclic peptides of protein X4 of SARS-CoV Urbani [2]

IDGSSGVANPAMDPI
0.5: Binding of a rabbit serum to looped peptides [1] | Binding of serum 2 to looped/cyclic peptides of protein X1 of SARS-CoV Urbani [2] | Binding of serum 6 to linear peptides of protein X1 of SARS-CoV Urbani [2]
0.8: Binding of serum 1a to looped/cyclic peptides of protein X1 of SARS-CoV Urbani [2]
0.3: Binding of serum 6 to looped/cyclic peptides of protein X1 of SARS-CoV Urbani [2] | Binding of serum SARS-green to linear peptides of protein X1 of SARS-CoV Urbani [2]
0.1: Binding of a rabbit serum to linear peptides [1]
0.7: Binding of serum 1a to linear peptides of protein X1 of SARS-CoV Urbani [2] | Binding of serum 1b to looped/cyclic peptides of protein X1 of SARS-CoV Urbani [2] | Binding of serum 2 to linear peptides of protein X1 of SARS-CoV Urbani [2] | Binding of serum 37 to looped/cyclic peptides of protein X1 of SARS-CoV Urbani [2] | Binding of Control serum LUMC to looped peptides [3]
0.6: Binding of serum 1b to linear peptides of protein X1 of SARS-CoV Urbani [2] | Binding of serum 37 to linear peptides of protein X1 of SARS-CoV Urbani [2] | Binding of serum 62 to linear peptides of protein X1 of SARS-CoV Urbani [2] | Binding of serum 62 to looped/cyclic peptides of protein X1 of SARS-CoV Urbani [2] | Binding of serum SARS-green to looped/cyclic peptides of protein X1 of SARS-CoV Urbani [2] | Binding of Control Serum Blood-Bank to Looped peptides [3] | Binding of Control serum Blood-bank to linear peptides [3] | Binding of Control serum LUMC to linear peptides [3]
0.4: Binding of serum London to linear peptides of protein X1 of SARS-CoV Urbani [2] | Binding of serum SARS-yellow to linear peptides of protein X1 of SARS-CoV Urbani [2] | Binding of serum SARS-yellow to looped/cyclic peptides of protein X1 of SARS-CoV Urbani [2]

IENATFFIFNKLVKD
0.4: Binding of serum 1b to looped/cyclic peptides of protein X1 of SARS-CoV Urbani [2] | Binding of serum 2 to looped/cyclic peptides of protein X1 of SARS-CoV Urbani [2] | Binding of serum SARS-yellow to linear peptides of protein X1 of SARS-CoV Urbani [2] | Binding of Control serum Blood-bank to linear peptides [3]
0.5: Binding of a rabbit serum to looped peptides [1] | Binding of serum 1a to looped/cyclic peptides of protein X1 of SARS-CoV Urbani [2] | Binding of serum 1b to linear peptides of protein X1 of SARS-CoV Urbani [2] | Binding of serum 2 to linear peptides of protein X1 of SARS-CoV Urbani [2] | Binding of serum 37 to linear peptides of protein X1 of SARS-CoV Urbani [2] | Binding of serum 37 to looped/cyclic peptides of protein X1 of SARS-CoV Urbani [2] | Binding of serum 62 to linear peptides of protein X1 of SARS-CoV Urbani [2] | Binding of serum 62 to looped/cyclic peptides of protein X1 of SARS-CoV Urbani [2] | Binding of Control Serum Blood-Bank to Looped peptides [3] | Binding of Control serum LUMC to looped peptides [3]
0.1: Binding of a rabbit serum to linear peptides [1] | Binding of serum SARS-green to looped/cyclic peptides of protein X1 of SARS-CoV Urbani [2]
0.2: Binding of serum 6 to looped/cyclic peptides of protein X1 of SARS-CoV Urbani [2] | Binding of serum London to linear peptides of protein X1 of SARS-CoV Urbani [2] | Binding of serum London to looped/cyclic peptides of protein X1 of SARS-CoV Urbani [2] | Binding of serum SARS-green to linear peptides of protein X1 of SARS-CoV Urbani [2]
0.3: Binding of serum 6 to linear peptides of protein X1 of SARS-CoV Urbani [2] | Binding of serum SARS-yellow to looped/cyclic peptides of protein X1 of SARS-CoV Urbani [2] | Binding of Control serum LUMC to linear peptides [3]
0.6: Binding of serum 1a to linear peptides of protein X1 of SARS-CoV Urbani [2]

IHTIDGSSGVANPAM
0.7: Binding of serum 1a to linear peptides of protein X1 of SARS-CoV Urbani [2] | Binding of serum 1b to linear peptides of protein X1 of SARS-CoV Urbani [2] | Binding of serum 37 to linear peptides of protein X1 of SARS-CoV Urbani [2] | Binding of Control serum Blood-bank to linear peptides [3]
0.5: Binding of a rabbit serum to looped peptides [1] | Binding of serum 1a to looped/cyclic peptides of protein X1 of SARS-CoV Urbani [2] | Binding of serum 6 to linear peptides of protein X1 of SARS-CoV Urbani [2] | Binding of serum London to linear peptides of protein X1 of SARS-CoV Urbani [2] | Binding of serum SARS-green to linear peptides of protein X1 of SARS-CoV Urbani [2]
0.1: Binding of a rabbit serum to linear peptides [1]
0.2: Binding of serum 6 to looped/cyclic peptides of protein X1 of SARS-CoV Urbani [2] | Binding of serum London to looped/cyclic peptides of protein X1 of SARS-CoV Urbani [2] | Binding of serum SARS-yellow to looped/cyclic peptides of protein X1 of SARS-CoV Urbani [2]
0.8: Binding of serum 2 to linear peptides of protein X1 of SARS-CoV Urbani [2] | Binding of serum 62 to linear peptides of protein X1 of SARS-CoV Urbani [2] | Binding of Control serum LUMC to linear peptides [3]
0.4: Binding of serum 1b to looped/cyclic peptides of protein X1 of SARS-CoV Urbani [2] | Binding of Control Serum Blood-Bank to Looped peptides [3] | Binding of Control serum LUMC to looped peptides [3]
0.3: Binding of serum 2 to looped/cyclic peptides of protein X1 of SARS-CoV Urbani [2] | Binding of serum 37 to looped/cyclic peptides of protein X1 of SARS-CoV Urbani [2] | Binding of serum 62 to looped/cyclic peptides of protein X1 of SARS-CoV Urbani [2] | Binding of serum SARS-green to looped/cyclic peptides of protein X1 of SARS-CoV Urbani [2]
0.6: Binding of serum SARS-yellow to linear peptides of protein X1 of SARS-CoV Urbani [2]

IIKLVFLWLLWPVTL
0.3: Binding of serum 37 to linear peptides of protein M of SARS-CoV Urbani [2] | Binding of serum 62 to linear peptides of protein M of SARS-CoV Urbani [2] | Binding of serum London to linear peptides of protein M of SARS-CoV Urbani [2] | Binding of serum SARS-green to looped/cyclic peptides of protein M of SARS-CoV Urbani [2]
0.5: Binding of serum 1b to linear peptides of protein M of SARS-CoV Urbani [2] | Binding of serum 2 to looped/cyclic peptides of protein M of SARS-CoV Urbani [2] | Binding of serum 6 to looped/cyclic peptides of protein M of SARS-CoV Urbani [2] | Binding of serum 37 to looped/cyclic peptides of protein M of SARS-CoV Urbani [2] | Binding of Control serum Blood-bank to linear peptides of the protein M of SARS-CoV Urbani [3]
0.4: Binding of serum 2 to linear peptides of protein M of SARS-CoV Urbani [2] | Binding of serum 6 to linear peptides of protein M of SARS-CoV Urbani [2] | Binding of serum SARS-green to linear peptides of protein M of SARS-CoV Urbani [2] | Binding of serum SARS-yellow to looped/cyclic peptides of protein M of SARS-CoV Urbani [2]
0.1: Rabbit serum linear peptides [1]
0.2: Binding of serum London to looped/cyclic peptides of protein M of SARS-CoV Urbani [2] | Binding of serum SARS-yellow to linear peptides of protein M of SARS-CoV Urbani [2]
0.7: Binding of serum 1a to linear peptides of protein M of SARS-CoV Urbani [2] | Binding of serum 1b to looped/cyclic peptides of protein M of SARS-CoV Urbani [2] | Binding of Control Serum Blood-Bank to Looped peptides of the protein M of SARS-CoV Urbani [3]
0.0: Rabbit serum looped peptides [1]
0.6: Binding of serum 1a to looped/cyclic peptides of protein M of SARS-CoV Urbani [2] | Binding of serum 62 to looped/cyclic peptides of protein M of SARS-CoV Urbani [2] | Binding of Control serum LUMC to linear peptides of the protein M of SARS-CoV Urbani [3] | Binding of Control serum LUMC to looped peptides of the protein M of SARS-CoV Urbani [3]
